Experimental data: patent US20140066373A1, “TREATING DIABETES WITH OXYTOCIN OR OXYTOCIN ANALOGS” (Albert Einstein College of Medicine of Yeshiva University, priority 2012, published 2014)
Where no end group is shown, it is not given here.

Columns and labels:
[1] = tested on: HFD-induced prediabetic mouse model; experiment: Acute intra-third ventricle therapy in HFD-induced prediabetic (dietary obese) mice: GTT, fasting blood insulin, body weight; format: in vivo, C57BL/6 mice; conditions: for fasting blood insulin levels (hyperinsulinemia) / glucose intolerance (glucose tolerance test, GTT and AUC) / treatment effects compared with oxytocin at the same dose: 2-month HFD mice, intra-third ventricle; for fasting blood insulin levels (hyperinsulinemia) / glucose intolerance (glucose tolerance test, GTT and AUC): 2 μg per injection twice over overnight fasting, vs vehicle; for treatment effects compared with oxytocin at the same dose: 2 μg per injection twice, GTT and fasting insulin
Source text: (§1) Animals. C57BL/6 mice were purchased from Jackson Laboratory. All mice were housed in standard conditions. High-fat diet was purchased from Research Diets, Inc. All animal procedures were approved by the Institutional Animal Care and Use Committee. Mice were subjected to body weight measurement on a daily basis surrounding surgical procedures or drug treatments to monitor physical recovery or the effect of drug treatment on body weight.
(§2) Third ventricle cannulation and drug treatment. Third ventricle cannulation procedure was as previously described (39). An ultra-precise small animal stereotactic apparatus (Kopf Instruments) was used to perform implantation of a guide cannula into the third ventricle of anesthetized mice, at the coordinates of 1.8 mm posterior to the bregma and 5.0 mm below the skull surface. Mice were allowed 1-2 weeks for postsurgical recovery. For drug treatment. Oxytocin (Bachem Americas, Inc.), [Ser4, Ile8]-oxytocin (Bachem Americas, Inc.), [Asu1,6]-oxytocin (American Peptide Company, Inc.) or control vehicle were injected via pre-implanted guide cannula into the third ventricle of individually housed mice.
(§3) Blood tests. For glucose tolerance test (GTT), overnight-fasted mice received one-time intraperitoneal injection of glucose (2 g/kg body weight), and blood glucose levels were measured using OneTouch Ultra2 (LifeScan, Inc.). Fasting blood insulin levels were measured with Ultra Sensitive Mouse Insulin ELISA kits (Crystal Chem). Glucose-stimulated insulin secretion (GSIS) test was performed as previously described (19). Overnight-fasted mice received one-time intraperitoneal injection of glucose (3 g/kg body weight), and blood insulin levels were measured at 3 min. and 20 min. after the injection.
Acute oxytocin therapy reverses insulin resistance in dietary obese mice independently of body weight. […] To experimentally address whether oxytocin could have an anti-diabetic action, and independently of its anti-obesity effect, an acute oxytocin therapy paradigm was applied to dietary obese mice to avoid confounding body weight changes, so that the potential anti-diabetes effect of oxytocin could be dissected from its anti-obesity effect. Adult male C57BL/6 mice […] of high-fat diet (HFD) feeding since weaning to develop pre-diabetic glucose intolerance and hyperinsulinemia. Then these mice received third-ventricle implantation of guide cannula followed by postsurgical recovery. Oxytocin was administered via pre-implanted third-ventricle cannula at a dose of 2 μg per injection twice over an overnight fasting period, one at the starting point of fasting and the other at 30 min prior to glucose tolerance test (GTT). Mice of treatment control group received intra-third ventricle vehicle injections.
Acute [Ser4, Ile8]-oxytocin therapy improves insulin resistance in dietary obese mice independently of body weight. Having observed the anti-insulin resistance effect of oxytocin, it was next investigated whether oxytocin peptide analogs have similar or stronger treatment effect. The purpose of this experiment was two-fold. First, was to investigate whether the anti-insulin resistance action of oxytocin could be extended to oxytocin analogs. […] Existing oxytocin peptide analogs were screened. [Ser4, Ile8]-oxytocin came out of the screen as a good candidate. […] This stronger anti-insulin resistance effect of [Ser4, Ile8]-oxytocin is in line with structure-based theoretical prediction of drug effects. The substitution of glutamine at amino acid position 4 of oxytocin with serine has two direct effects on peptide function—it strengthens the α-helical structure in peptide (13), which leads to an overall structural stabilization, longer drug duration, and better protein binding property with signaling partners; it also increases the hydrophobicity of peptide, which leads to enhanced membrane permeability and improved tissue distribution. […]

[2] = tested on: STZ-induced diabetic mice; experiment: 7-day intra-third ventricle pretreatment in STZ-induced diabetic mice: GTT, fasting blood insulin, GSIS, body weight; format: in vivo, C57BL/6 mice; conditions: vs STZ control; for first-phase glucose-stimulated insulin secretion (GSIS): blood insulin 3 min after glucose 3 g/kg i.p.; for fasting blood insulin levels / glucose intolerance (glucose tolerance test, GTT and AUC): pretreatment twice per day for 7 days, intra-third ventricle, 1 μg per injection (1 mg [sic] for [Ser4, Ile8]-oxytocin), STZ 40 mg/kg i.p. Day 4 to Day 7
Source text: as §1, §2, §3
Next, it was investigated if oxytocin therapy may treat diabetes by counteracting its main pathological changes of pancreatic beta cell dysfunction and impaired insulin secretion. […] Experimentally, adult C57BL/6 mice on normal chow diet received intra-third ventricle implantation of cannula and postsurgical recovery. Oxytocin pretreatment was given at 1 μg per injection twice per day for 7 consecutive days via pre-implanted cannula, and non-treatment group received vehicle injections. From Day 4 to Day 7 during oxytocin treatment, mice simultaneously received intraperitoneal injections of STZ at 40 mg/kg body weight per day for 4 days to induce diabetes.
The same test strategy of pretreating mice with [Ser4, Ile8]-oxytocin was employed and then evaluating if it could attenuate the extent of STZ-induced beta cell dysfunction and diabetes. Adult chow-fed C57BL/6 mice first received intra-third ventricle injections of [Ser4, Ile8]-oxytocin at 1 mg per injection twice per day for 7 consecutive days. Non-treatment control mice received intra-third ventricle injections of vehicle instead of [Ser4, Ile8]-oxytocin. From Day 4 to Day 7 of [Ser4, Ile8]-oxytocin treatment, both treatment and control groups received intraperitoneal injections of STZ at 40 mg/kg body weight per injection per day for 4 days. The same panel of examinations were performed including glucose tolerance test, fasting blood insulin levels and glucose-stimulated insulin secretion in these mice.
Finally [Asu1,6]-oxytocin was tested for potential […] protection and anti-diabetic effects using an STZ-induced diabetic mouse model. [Asu1,6]-oxytocin pretreatment was given to adult chow-fed C57BL/6 mice via intra-third ventricle injections at 1 μg per injection b.i.d. for 7 consecutive days. Vehicle injections were given in parallel to non-treatment control group. From Day 4 to Day 7 of [Asu1,6]-oxytocin treatment, mice were subjected to STZ induction of diabetes at 40 mg/kg body weight per intraperitoneal injection per day for 4 days. Following [Asu1,6]-oxytocin and STZ treatments, mice were evaluated for glucose tolerance test, fasting blood insulin levels, and glucose-stimulated insulin secretion.

normal rats = conditions: central or peripheral administration; normal rats (5); cited from earlier work
normal men = normal men (29); cited from earlier work
type-1 diabetic patients = type-1 diabetic patients (28); cited from earlier work
obesity = conditions: cited from earlier work
[3] = tested on: uterine contractile response; conditions: of natural oxytocin, literature report (36); cited from earlier work

Question: Which “fasting blood insulin levels (hyperinsulinemia)” value [1] does the source give for CC[C@H](C)[C@@H]1NC(=O)[C@H](Cc2ccc(O)cc2)NC(=O)[C@@H](N)CSSC[C@@H](C(=O)N2CCC[C@H]2C(=O)N[C@@H](CC(C)C)C(=O)NCC(N)=O)NC(=O)[C@H](CC(N)=O)NC(=O)[C@H](CCC(N)=O)NC1=O [oxytocin, Cys-Tyr-Ile-Gln-Asn-Cys-Pro-Leu-Gly-NH2] here?
Answer: Its value is “significantly improved”.

Question: And the “glucose intolerance (glucose tolerance test, GTT and AUC)” value (“glucose intolerance” below) [1]?
Answer: Its value is “significantly improved”.

Question: And the insulin resistance ([1]; obesity-induced type-2 prediabetic mice, acute treatment)?
Answer: Its insulin resistance is “can acutely reverse insulin resistance”.

Question: And the “first-phase glucose-stimulated insulin secretion (GSIS)” value ([2]; 7-day pretreatment, STZ mice)?
Answer: The value was “potentiated”.

Question: What about the “second-phase glucose-stimulated insulin secretion (GSIS)” value ([2]; blood insulin 20 min after glucose 3 g/kg i.p., 7-day pretreatment, STZ mice) of the same molecule?
Answer: Its value is “potentiated”.

Question: And the “fasting blood insulin levels” value [2]?
Answer: Its value is “protected fasting blood insulin levels”.

Question: And the “glucose intolerance” value [2]?
Answer: The value was “significantly improved glucose intolerance”.

Question: And the pancreatic insulin secretion (normal rats)?
Answer: Its pancreatic insulin secretion is “can stimulate pancreatic insulin secretion”.

Question: What about the pancreatic insulin secretion (normal men) of the same molecule?
Answer: Its pancreatic insulin secretion is “can stimulate pancreatic insulin secretion”.

Question: What about the pancreatic insulin secretion (type-1 diabetic patients) of the same molecule?
Answer: The pancreatic insulin secretion was “can stimulate pancreatic insulin secretion”.

Question: What about the obesity (obesity; chronic central or peripheral oxytocin treatment (25; 37)) of the same molecule?
Answer: The obesity was “can decrease obesity”.

Question: And the food intake (obesity; oxytocin treatment (37))?
Answer: Its food intake is “decreases rather than increases food intake”.

Question: With [Asu1,6]-oxytocin as the molecule, how does the “fasting blood insulin levels (hyperinsulinemia)” value [1] read?
Answer: The value was “lowered fasting blood insulin levels”.

Question: What about the “glucose intolerance” value [1] of the same molecule?
Answer: Its value is “improved glucose intolerance”.

Question: What about the “treatment effects compared with oxytocin at the same dose” value [1] of the same molecule?
Answer: Its value is “slightly weaker than oxytocin”.

Question: What about the “first-phase glucose-stimulated insulin secretion (GSIS)” value ([2]; 7-day pretreatment, STZ mice) of the same molecule?
Answer: Its value is “appreciably improved”.

Question: And the “fasting blood insulin levels” value [2]?
Answer: Its value is “appreciably improved”.

Question: What about the “glucose intolerance” value [2] of the same molecule?
Answer: Its value is “appreciably improved”.

Question: And the “intrinsic activity relative to natural oxytocin” value [3]?
Answer: The value was roughly 70%.

Question: Which results are given for “[Ser4, Ile8]-oxytocin (CYISNCPIG; ends and bridges not checked; cysteine pairing not given here; UniProt P01178 20-28, looked up, variant Q4S L8I) [oxytocin analog: glutamine at position 4 substituted with serine, leucine at position 8 with isoleucine; Bachem Americas, Inc]”?
Answer: fasting blood insulin levels (hyperinsulinemia) [1]: significantly corrected; glucose intolerance (glucose tolerance test, GTT and AUC) [1]: significantly corrected glucose intolerance; treatment effects compared with oxytocin at the same dose [1]: higher efficacy than oxytocin; first-phase glucose-stimulated insulin secretion (GSIS) ([2]; 7-day pretreatment, STZ mice): significantly higher levels of first-phase GSIS than non-treatment group; fasting blood insulin levels [2]: ameliorated circulating insulin insufficiency; glucose intolerance (glucose tolerance test, GTT and AUC) [2]: significantly prevented STZ-induced glucose intolerance
